Reference: patent US9255272B2, “Use of inhibitors of leukotriene B4 receptor BLT2 for treating asthma” (Korea University Research & Business Foundation, priority 2007, dated 2016)

How the values were obtained:
OVA-challenged mice [1] = test: AHR (Penh) in response to methacholine in OVA-challenged mice; format: in vivo, mouse; settings: for reduction of Penh (based on area-under-the-curve calculations): methacholine 6.25-50 mg/ml, 24 h after last OVA challenge
Description: Female BALB/c mice and C57BL/6 mice (7 weeks old; 18-20 g) were obtained from Orientbion Inc. (Seoungnam, Korea). Sensitization and challenge were carried out as described previously with some modification (28). Briefly, female C57BL/6 mice (7 weeks old; 18-20 g) were immunized by intraperitoneal (i.p.) injection of 200 μg ovalbumin (OVA) emulsified in 2.5 mg of adjuvant aluminum hydroperoxide gel (alum) (Pierce, Rockford, Ill.). A second i.p. injection of 20 μg OVA adsorbed onto alum (2.5 mg) was administered 10 days later. After an additional 10 days, mice were exposed to an aerosol of 1% OVA in saline for 30 min daily on 3 consecutive days. On day 25, mice were finally challenged by provocation with 10% OVA aerosol. For inhibition experiments, sense or antisense BLT2 (1.6 mg/kg) was injected intravenously 24 h and then 1 h before the 10% OVA challenge. The mice were then killed on day 27 to assess asthmatic phenotypes. Antisense BLT2 oligonucleotide (5′-[…]-3′ (SEQ ID NO: 15)), sense BLT2 oligonucleotide (5′-[…]-3′ (SEQ ID NO: 16)). […]
Airway AHR was measured in unrestrained, conscious mice 24 h after the final OVA challenge using a whole-body plethysmograph, as previously described (29). Mice were placed in a barometric plethysmographic chamber (All Medicus Co., Seoul, Korea), and baseline readings were taken and averaged for 3 min. […] Readings were taken and averaged for 3 min after each nebulization, and enhanced pause (Penh) was determined. Signals were analyzed to derive whole body flow parameters including respiratory rate, tidal volume, inspiratory time (Ti), expiratory time (Te)1. peak inspiratory flow (PIF), peak expiratory flow (PEF), and relaxation time (RT). […] Baseline Penh measurements for each animal were recorded for 3 min and averaged. Results are expressed as the percentage increase of Penh following challenge with each concentration of methacholine, where the baseline Penh (after saline challenge) is expressed as 100%. Penh values averaged for 3 min after each nebulization were evaluated. […]

OVA-challenged mice [2] = test: Histological analysis of lung airway inflammation in OVA-challenged mice; format: in vivo, mouse
Description: Female BALB/c mice and C57BL/6 mice (7 weeks old; 18-20 g) were obtained from Orientbion Inc. (Seoungnam, Korea). Sensitization and challenge were carried out as described previously with some modification (28). Briefly, female C57BL/6 mice (7 weeks old; 18-20 g) were immunized by intraperitoneal (i.p.) injection of 200 μg ovalbumin (OVA) emulsified in 2.5 mg of adjuvant aluminum hydroperoxide gel (alum) (Pierce, Rockford, Ill.). A second i.p. injection of 20 μg OVA adsorbed onto alum (2.5 mg) was administered 10 days later. After an additional 10 days, mice were exposed to an aerosol of 1% OVA in saline for 30 min daily on 3 consecutive days. On day 25, mice were finally challenged by provocation with 10% OVA aerosol. For inhibition experiments, sense or antisense BLT2 (1.6 mg/kg) was injected intravenously 24 h and then 1 h before the 10% OVA challenge. The mice were then killed on day 27 to assess asthmatic phenotypes. Antisense BLT2 oligonucleotide (5′-[…]-3′ (SEQ ID NO: 15)), sense BLT2 oligonucleotide (5′-[…]-3′ (SEQ ID NO: 16)).
Alternatively, BALB/c mice were sensitized on day 1 by i.p. injection of 20 μg OVA emulsified in 2.5 mg of alum (Pierce, Rockford, Ill.), followed by an identical booster injection administered on day 14. On days 21, 22 and 23 after initial sensitization, the mice were challenged for 30 min with an aerosol of 1% OVA using an ultrasonic nebulizer. LY255283 (2.5 mg/kg) or vehicle control (DMSO) was administered intravenously 1 h before 1% OVA challenge. Mice were killed on day 25, to assess asthmatic phenotypes. 2′,7′-dichorofluorescein diacetate (DCF-DA) was purchased from Molecular Probes (Eugene, Oreg.). BSA and DMSO were from Sigma-Aldrich (St. Louis, Mo.). Acetyl-methacholine chloride was purchased from Sigma-Aldrich (St. Louis, Mo.). All other chemicals were from standard sources and were of molecular biology grade or higher. All mice were maintained and bred under specific pathogen-free conditions in the Korea University mouse facility, and experiments were conducted within the parameters of an approved protocol by the Animal Research Committee.
Inflammatory cells in the BAL fluid were collected by centrifugation (1,000 g for 3 min) and washed once in PBS. Cells were counted using a hemocytometer, and viability was assessed by trypan blue exclusion. In addition, cytospin was carried out for each BAL sample, which was then stained with Diff-Quick (Merck, Dorset, U.K.), enabling differential cell counts to be made. For histological analysis, the lungs of the mice were dissected 48 h after OVA challenge and fixed with 10% formaldehyde in PBS, dehydrated in ethanol-xylene, and embedded in paraffin. Multiple paraffin-embedded […] sections were placed on 0.5% gelatin-coated slides, deparaffinized, and stained with hematoxylin-eosin (HE). Images were acquired using a BX51 microscope (Olympus, Tokyo, Japan) equipped with a DP71 digital camera (Olympus, Tokyo, Japan).
(§1) Inflammatory cells in the BAL fluid were collected by centrifugation (1,000 g for 3 min) and washed once in PBS. Cells were counted using a hemocytometer, and viability was assessed by trypan blue exclusion. […]
as §1

[3] = BALB/c mice, LY255283 2.5 mg/kg i.v. 1 hr before 1% OVA challenge
[4] = C57BL/6 mice, antisense BLT2 1.6 mg/kg i.v. 24 hr and 1 hr before 10% OVA challenge

CCc1cc(C(C)=O)c(O)cc1OCCCCCC(C)(C)c1nnn[nH]1 [LY255283, 1-[5-ethyl-2-hydroxy-4-[[6-methyl-6-(1H-tetrazol-5-yl)heptyl]oxy]phenyl]-ethanone, reference compound]
reduction of Penh (based on area-under-the-curve calculations) (OVA-challenged mice [1]; LY255283 2.5 mg/kg i.v.): −70%
airway obstruction and leukocyte infiltration (histology) (OVA-challenged mice [2]; [3]): diminished the effect
reduction of inflammation score as compared to control (OVA-challenged mice [2]; [3]): ~66%

antisense BLT2: Antisense BLT2 oligonucleotide 5′-GCTCAGTAGTGTCTCATTCC-3′ (SEQ ID NO: 15) (listed as DNA, chemistry not fully specified)
reduction of Penh (based on area-under-the-curve calculations) (OVA-challenged mice [1]; antisense BLT2 1.6 mg/kg i.v.): −70%
airway obstruction and leukocyte infiltration (histology) (OVA-challenged mice [2]; [4]): diminished
reduction of inflammation scores as compared to control (OVA-challenged mice [2]; [4]): ~67%

antisense Rac: phosphorothioate 17-mer to the 5′ end of murine Rac mRNA, 5′-CACTTGATGGCCTGCAT-3′ (SEQ ID NO: 22) (listed as DNA, chemistry not fully specified)
AHR after allergen challenge (OVA-challenged mice [1]; mouse model system for asthma, antisense oligomers to Rac1): remarkably reduced
airway obstruction and leukocyte infiltration (histology) (OVA-challenged mice [2]; Rac antisense i.v. 24 hr and 1 hr before 10% OVA challenge, 48 hr after challenge): diminished the effect
